Tests used:
Test in all cases: relative viability (nuclei count vs DMSO), 5 days (fraction); higher = more cells survive
AGI-6780 + Decitabine = compound: O=C(Nc1cccc(C(F)(F)F)c1)Nc1cc(S(=O)(=O)NC2CC2)ccc1-c1ccsc1 [AGI-6780] + Nc1ncn([C@H]2C[C@H](O)[C@@H](CO)O2)c(=O)n1 [Decitabine] (partner 2 µM)
How it was run: (§1)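 Medians of duplicate plates are given as relative viability. That measure is the nuclei count in treated wells divided by the count in vehicle wells. Counts were taken on 4× images of lung cancer cell lines in 1536-well plates, 5 days after pin-tool dosing the day after seeding with one drug alone or a fixed anchor-drug dose plus five library-drug doses (not always all listed) in √10 steps.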

AGI-6780 + Luminespib = compound: O=C(Nc1cccc(C(F)(F)F)c1)Nc1cc(S(=O)(=O)NC2CC2)ccc1-c1ccsc1 [AGI-6780] + CCNC(=O)c1noc(-c2cc(C(C)C)c(O)cc2O)c1-c1ccc(CN2CCOCC2)cc1 [Luminespib] (partner 0.01 µM)
How it was run: as §1

AGI-6780 + Lapatinib = compound: O=C(Nc1cccc(C(F)(F)F)c1)Nc1cc(S(=O)(=O)NC2CC2)ccc1-c1ccsc1 [AGI-6780] + CS(=O)(=O)CCNCc1ccc(-c2ccc3ncnc(Nc4ccc(OCc5cccc(F)c5)c(Cl)c4)c3c2)o1 [Lapatinib] (partner 2 µM)
How it was run: as §1

AGI-6780 + Olaparib = compound: O=C(Nc1cccc(C(F)(F)F)c1)Nc1cc(S(=O)(=O)NC2CC2)ccc1-c1ccsc1 [AGI-6780] + O=C(c1cc(Cc2n[nH]c(=O)c3ccccc23)ccc1F)N1CCN(C(=O)C2CC2)CC1 [Olaparib] (partner 8 µM)
How it was run: as §1

Cell Line | relative viability (AGI-6780 + Decitabine; first compound 0.08 µM) | relative viability (AGI-6780 + Decitabine; first compound 0.253 µM) | relative viability (AGI-6780 + Decitabine; first compound 0.8 µM) | relative viability (AGI-6780 + Decitabine; first compound 2.53 µM) | relative viability (AGI-6780 + Decitabine; first compound 8 µM) | relative viability (AGI-6780 + Luminespib; first compound 0.08 µM) | relative viability (AGI-6780 + Luminespib; first compound 0.253 µM) | relative viability (AGI-6780 + Luminespib; first compound 0.8 µM) | relative viability (AGI-6780 + Luminespib; first compound 2.53 µM) | relative viability (AGI-6780 + Luminespib; first compound 8 µM) | relative viability (AGI-6780 + Lapatinib; first compound 0.08 µM) | relative viability (AGI-6780 + Lapatinib; first compound 0.253 µM) | relative viability (AGI-6780 + Lapatinib; first compound 0.8 µM) | relative viability (AGI-6780 + Lapatinib; first compound 2.53 µM) | relative viability (AGI-6780 + Lapatinib; first compound 8 µM) | relative viability (AGI-6780 + Olaparib; first compound 0.08 µM) | relative viability (AGI-6780 + Olaparib; first compound 0.253 µM) | relative viability (AGI-6780 + Olaparib; first compound 0.8 µM) | relative viability (AGI-6780 + Olaparib; first compound 2.53 µM) | relative viability (AGI-6780 + Olaparib; first compound 8 µM)
NCI-H460 | 0.547 | 0.453 | 0.552 | 0.446 | 0.512 | 0.0337 | 0.0309 | 0.0296 | 0.0322 | 0.0345 | 0.872 | 1.03 | 1.03 | 1.07 | 1.11 | 0.413 | 0.444 | 0.487 | 0.291 | 0.447
NCI-H1793 | 0.519 | 0.539 | 0.415 | 0.342 | 0.549 | 0.211 | 0.162 | 0.175 | 0.155 | 0.207 | 0.819 | 0.811 | 0.779 | 0.491 | 0.723 | 0.904 | 0.845 | 0.902 | 0.695 | 0.805
NCI-H2347 | 0.706 | 0.62 | 0.553 | 0.643 | 0.65 | 0.456 | 0.659 | 0.405 | 0.411 | 0.403 | 0.904 | 0.874 | 0.688 | 0.879 | 0.93 | 0.564 | 0.561 | 0.569 | 0.597 | 0.592
HCC-15 | 0.677 | 0.756 | 0.666 | 0.546 | 0.697 | 0.407 | 0.247 | 0.274 | 0.38 | 0.3 | 0.896 | 0.824 | 0.971 | 0.83 | 0.856 | 0.724 | 0.808 | 0.703 | 0.657 | 0.76
NCI-H1915 | 0.276 | 0.267 | 0.283 | 0.255 | 0.26 | 0.781 | 0.894 | 0.879 | 0.698 | 0.836 | 0.96 | 0.989 | 0.988 | 0.982 | 0.977 | 0.25 | 0.292 | 0.258 | 0.208 | 0.26
NCI-H1734 | 0.506 | 0.566 | 0.528 | 0.372 | 0.48 | 0.216 | 0.233 | 0.201 | 0.19 | 0.177 | 0.961 | 1.09 | 1.07 | – | 1.07 | 0.722 | 0.633 | 0.654 | 0.492 | 0.574
NCI-H2342 | 0.727 | 0.733 | 0.732 | 0.65 | 0.99 | 0.604 | 0.68 | 0.679 | 0.552 | 1.09 | – | – | – | – | – | 0.407 | 0.437 | 0.504 | 0.497 | 0.565
COR-L 105 | 0.602 | 0.89 | 0.649 | 0.655 | 0.713 | 0.81 | 0.654 | 0.725 | 0.618 | 0.535 | 0.358 | 0.357 | 0.437 | 0.343 | 0.324 | 0.632 | 0.466 | 0.707 | 0.66 | 0.541
PC-14 | 0.22 | 0.226 | 0.295 | 0.217 | 0.198 | 0.228 | 0.195 | 0.171 | 0.118 | 0.121 | 0.312 | 0.348 | 0.312 | 0.314 | 0.291 | 0.378 | 0.282 | 0.234 | 0.318 | 0.276
NCI-H2087 | 0.329 | 0.272 | 0.326 | 0.243 | 0.235 | 0.203 | 0.141 | 0.181 | 0.155 | 0.175 | 1.04 | 1.05 | 0.926 | 0.976 | 0.98 | 0.674 | 0.563 | 0.524 | 0.53 | 0.637
NCI-H1395 | 0.738 | 0.789 | 0.747 | 0.676 | 0.742 | 1.02 | 0.78 | 0.73 | 0.646 | 0.615 | 0.941 | 1.06 | 1.01 | – | 1.04 | 0.474 | 0.475 | 0.474 | 0.424 | 0.439
NCI-H1648 | 0.551 | 0.418 | 0.506 | 0.459 | 0.627 | – | – | – | – | – | – | – | – | – | – | 0.89 | 0.807 | 0.783 | 0.497 | 0.415
NCI-H520 | 0.599 | 0.482 | 0.434 | 0.392 | 0.467 | 0.23 | 0.255 | 0.234 | 0.178 | 0.231 | 0.913 | 0.983 | 0.981 | 0.775 | 0.968 | 0.33 | 0.376 | 0.31 | 0.322 | 0.331
A549 | 0.329 | 0.211 | 0.275 | 0.292 | 0.322 | – | – | – | – | – | 0.999 | 0.968 | 1.14 | 0.927 | 1.06 | 0.32 | 0.298 | 0.337 | 0.302 | 0.377
LC-2-ad | 0.835 | 0.804 | 0.791 | 0.868 | 0.793 | 1 | 0.915 | 1.11 | 1.05 | 0.921 | 0.943 | 1.04 | 0.979 | 1.02 | 0.958 | 0.782 | 0.707 | 0.764 | 0.674 | 0.727
EMC-BAC-2 | – | 1.01 | 0.927 | 0.855 | 1.04 | 1.2 | 1.24 | 1.17 | 0.947 | 1.18 | 0.919 | 0.929 | 0.878 | 0.725 | 0.94 | – | 0.477 | 0.409 | 0.45 | 0.53
EBC-1 | – | – | – | – | – | – | – | – | – | – | 0.224 | 0.21 | 0.198 | 0.202 | 0.201 | 0.788 | 0.789 | 0.664 | 0.655 | 0.747

From the supplement of paper PMC10307832
